Source: US20240208949A1, “COMPOSITIONS, FORMULATIONS, AND METHODS FOR HAIR TREATMENT” (Oddity Labs, LLC, priority 2022, published 2024)

Legend:
[1] = tested on: human hair follicle dermal papilla cells (hFDPC); assay: Human follicle dermal papilla cell (hFDPC) proliferation, cell viability assay; type: cell-based; details: hFDPCs from donors 25-83 years old; vs DMSO control
Experimental: The ability of a compound or salt of the present disclosure to increase proliferation of human hair follicle dermal papilla cells (hFDPC) was tested using a cell viability assay, such as the Promega CellTiter-Glo® Luminescent Cell Viability Assay, MTT cell proliferation assay (ATCC® 30-1010K), or manual cell counting. The compound or salt was added at various concentrations spanning at least a 2-log range. hFDPCs were derived from multiple donors ranging from 25-83 years old and cultured on tissue-treated plastic using predefined growth media supplemented with 6-bromoindirubin-3′-Oxime (BIO), recombinant bone morphogenetic protein-2 (BMP-2), and basic fibroblast growth factor (FGFβ), a combination previously found to preserve in situ dermal papilla gene signatures. […] In TABLE 12, A represents less than 20% increased proliferation of hFDPCs, B represents a 20-40% increase, and C represents more than a 40% increase in the proliferation of hFDPCs.

[2] = molecular target: T1, cytochrome P450 3A4 (CYP3A4) (Homo sapiens, UniProt P08684); assay: P450-Glo CYP3A4 Assay and Screening System; type: in vitro ADME; details: 50 or 5 μM
T1 construct: purchased Promega
T1 sequence (P08684 whole entry): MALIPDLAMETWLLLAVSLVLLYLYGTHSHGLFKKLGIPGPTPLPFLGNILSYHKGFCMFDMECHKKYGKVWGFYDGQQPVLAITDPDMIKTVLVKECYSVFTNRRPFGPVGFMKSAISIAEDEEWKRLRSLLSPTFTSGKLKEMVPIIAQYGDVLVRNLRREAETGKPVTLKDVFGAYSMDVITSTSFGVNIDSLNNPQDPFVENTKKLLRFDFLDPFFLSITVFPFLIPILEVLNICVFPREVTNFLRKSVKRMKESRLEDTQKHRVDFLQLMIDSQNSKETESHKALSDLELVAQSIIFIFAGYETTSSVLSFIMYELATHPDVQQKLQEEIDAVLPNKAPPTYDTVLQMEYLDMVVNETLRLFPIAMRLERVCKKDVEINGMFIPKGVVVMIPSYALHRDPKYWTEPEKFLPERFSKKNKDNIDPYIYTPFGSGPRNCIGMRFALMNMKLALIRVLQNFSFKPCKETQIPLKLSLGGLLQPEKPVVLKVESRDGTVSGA
Experimental: A P450-Glo™ CYP3A4 Assay and Screening System (Promega) was employed to assess the inhibitory potential of the example compounds against CYP3A4 at concentrations of either 50 or 5 μM. […] Vehicle represents 0.1% DMSO and […] is a known cytochrome P450 3A4 inhibitor .

[3] = tested on: primary human follicle dermal papilla cells (hFDPCs); assay: ROS-Glo assay, intracellular reactive oxygen species; type: cell-based; details: 50 or 5 μM
Experimental: A ROS-Glo™ assay (Promega) was employed to assess the production of intracellular reactive oxygen species (ROS) for the example compounds at concentrations of either 50 or 5 μM. […] Vehicle represents 0.1% DMSO and DMNQ represents 2,3-dimethoxy-1,4-naphthalenedione, a known ROS-inducer.

[4] = Stability on open-air storage, LCMS/HPLC-UV; type: physicochemical
Experimental: A sample was analyzed for stability using LCMS. In both cases, the peak at 1.25 min was determined to be product I-1, while the impurity at 0.66 min was identified as the hydrolysis product 3-B04, as referenced in Scheme 9b. After analysis, the sample was allowed to stand in open air overnight. […] The purity of the compound in FIG. 7B was analyzed to be 95.3% (254 nm), and in FIG. 7D to be 90.61% (254 nm) after standing overnight in air. […] The compound gradually decomposed into compound 3-B04 and propane sulfonic acid.

[5] = Stability in DMI solution, LCMS/HPLC-UV; type: physicochemical
Experimental: A sample containing compound I-1 was prepared in 1,3-Dimethyl-2-imidazolidinone (DMI), sealed, and stored at room temperature for 7 days. Another sample containing compound I-1 was prepared in DMI and left open for 8 days. The purity of both samples was assessed using LCMS. […] The purity in FIG. 8B was determined to be 92.9%, and the purity in FIG. 8D was also found to be 92.9%.

[6] = Stability in example compositions, HPLC-UV; type: physicochemical; details: compositions of TABLE 2-TABLE 11, 8 months at room temperature
From the text: Example of composition (TABLE 2-TABLE 11) preserves the structure and inhibits the hydrolysis of compound I-1, even after storage of 8 months at room temperature.

[7] = Thermal degradation on distillation, NMR; type: physicochemical; details: distillation at 185° C. (after 30 minutes at 160° C.)
Experimental: Thermal degradation of compound I-1 was evaluated at 160° C. and 185° C. Pure compound I-1 (1.2 g), in the form of a brown oil, was subjected to distillation for 30 minutes at 160° C. When no product was observed, distillation was attempted at 185° C., albeit unsuccessfully.

[8] = Structural stability in solvent mixtures at elevated temperature, LC-UV; type: physicochemical; details: for Purity (LC-UV) after stirring: 80° C., 2 hrs
Experimental: Additionally, the ability of a compound or salt of the present disclosure was evaluated at room temperature as well as at 60° C. for varying periods of time (FIG. 1B). The structural stability of compound I-1 was further explored by stirring this compound in 2 different solvent mixtures at elevated temperatures for 2 hours. (TABLE 13). The samples were analyzed by LC-UV after stirring for 2 hrs (FIG. 2).

SMILES: CSc1nc(-c2ccco2)nn1S(C)(=O)=O [VII-3]
- Increase Proliferation of hFDPCs (%) [1]: C (C represents more than a 40% increase in the proliferation of hFDPCs)

SMILES: CCCS(=O)(=O)n1nc(-c2ccco2)nc1SC [I-4]
- Increase Proliferation of hFDPCs (%) [1]: B (B represents a 20-40% increase)

SMILES: CCSc1nc(-c2ccco2)nn1S(C)(=O)=O [I-2]
- Increase Proliferation of hFDPCs (%) [1]: C (C represents more than a 40% increase in the proliferation of hFDPCs)

SMILES: COCCSc1nc(-c2ccco2)nn1S(C)(=O)=O [I-3]
- Increase Proliferation of hFDPCs (%) [1]: C (C represents more than a 40% increase in the proliferation of hFDPCs)

SMILES: CCCCCS(=O)(=O)n1nc(-c2ccco2)nc1SCCOCCOC [I-5]
- Inhibition of CYP3A4 activity [2]: potent inhibitory potential
- Production of intracellular ROS (oxidative stress) [3]: Elevated levels of ROS
- Increase Proliferation of hFDPCs (%) [1]: C (C represents more than a 40% increase in the proliferation of hFDPCs)

SMILES: CCCS(=O)(=O)n1nc(-c2ccco2)nc1SCCOCCOC [I-1]
- Purity (254 nm) after standing overnight in air ([4]; 24 hours open-air exposure, room temperature): 90.61%
- Purity (254 nm), freshly synthesized material post-workup ([4]; before air exposure (baseline)): 95.3%
- Stability on storage in open air ([4]; room temperature, decomposes into 3-B04 and propane sulfonic acid): hydrolyzed upon storage in open air at room temperature
- Purity (254 nm) in DMI, left open ([5]; 1,3-Dimethyl-2-imidazolidinone (DMI), open air, 8 days): 92.9%
- Purity (254 nm) in DMI, sealed ([5]; 1,3-Dimethyl-2-imidazolidinone (DMI), sealed, room temperature, 7 days): 92.9%
- Stability in DMI ([5]; even when solution exposed to air): appeared to be stable
- Hydrolysis in example composition on storage [6]: minimal hydrolysis
- Thermal degradation [7]: slightly decomposing
- Purity (LC-UV) after stirring ([8]; 0.1% (v/v) HCOOH in H2O/0.1% (v/v) HCOOH in MeCN 1:1): 95%
- Purity (LC-UV) after stirring ([8]; EtOAc/Heptane 1:1): >99%
- Degradation in acidic conditions ([8]; acidic conditions, 2 hrs elevated temperature): minor degradation
- Structural stability in organic solvents ([8]; organic solvents used for straight phase column chromatography, 2 hrs elevated temperature): very stable
- Increase Proliferation of hFDPCs (%) [1]: C (C represents more than a 40% increase in the proliferation of hFDPCs)

SMILES: CCCCCS(=O)(=O)n1nc(-c2ccco2)nc1SCC [I-6]
- Increase Proliferation of hFDPCs (%) [1]: B (B represents a 20-40% increase)
